The source of these data is ChEMBL document CHEMBL4376832, “Changing the Rules of TB-Drug Discovery” (J Med Chem, 2019).

Values after ≈ are worked out from the molar mass of the structure shown.

For test [1], the system named is Mycobacterium tuberculosis. Nature of the test: Antimycobacterial against GFP-transfected Mycobacterium tuberculosis H37Rv assessed as reduction in GFP protein expression and measured every 2 days for 12 days. It counts as functional.
The nature of test [2]: Inhibition of ATP-synthase (unknown origin). Further details: species or system Homo sapiens.
Test [3] is described as follows: Inhibition of Mycobacterium phlei DSM-43239 C-terminal ATP-synthase assessed as reduction in luciferase activity incubated for 10 mins in presence of ATP by luminometric method. Further details: species or system Mycolicibacterium phlei DSM 43239 = CCUG 21000.

`COc1ccc(S(=O)(=O)N2CCCCCC2)cc1NC(=O)Cc1nnc(O)c2ccccc12`: the minimal inhibitory concentration (MIC) (usually the lowest concentration that inhibits growth of the organism) in test [1] was determined as 250 µM (≈ 118 µg/mL).
As for `COc1nc2ccc(Br)cc2cc1[C@@H](c1ccccc1)[C@@](O)(CCN(C)C)c1cccc2ccccc12` [BEDAQUILINE], the IC50 (usually the concentration that inhibits the measured activity by half) in test [2] is above 200000 nM; in test [3], 20 to 25 nM.
